Assay results: PubChem BioAssay (NCI)
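1) Cells in 96-well plates. 2) Compound, 48 h, 5 concentrations. 3) Linear interpolation between surrounding doses. 4) Unreached endpoint = highest concentration. Here, GI50 denotes the concentration required for 50% inhibition of growth. TGI is the concentration that stops growth completely.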

Legend:
Assay in all cases: inhibition of tumour cell growth, NCI panel, 48 h
[1] = system: 786-0 renal
[2] = system: A498 renal
[3] = system: A549 NSCLC
[4] = system: ACHN renal
[5] = system: BT-549 breast
[6] = system: CAKI-1 renal
[7] = system: CCRF-CEM leukemia
[8] = system: COLO 205 colon
[9] = system: DU-145 prostate
[10] = system: HCC-2998 colon
[11] = system: HCT-116 colon
[12] = system: HCT-15 colon
[13] = system: HL-60(TB) leukemia
[14] = system: HOP-62 NSCLC
[15] = system: HOP-92 NSCLC
[16] = system: HS 578T breast
[17] = system: HT29 colon
[18] = system: IGROV1 ovarian
[19] = system: K-562 leukemia
[20] = system: KM12 colon
[21] = system: LOX IMVI melanoma
[22] = system: MALME-3M melanoma
[23] = system: MCF7 breast
[24] = system: MDA-MB-435
[25] = system: MOLT-4 leukemia
[26] = system: NCI-H226 lung
[27] = system: NCI-H23 lung
[28] = system: NCI-H460 lung
[29] = system: NCI-H522 lung
[30] = system: NCI/ADR-RES ovarian
[31] = system: OVCAR-3 ovarian
[32] = system: OVCAR-4 ovarian
[33] = system: OVCAR-5 ovarian
[34] = system: OVCAR-8 ovarian
[35] = system: PC-3 prostate
[36] = system: RPMI-8226 leukemia
[37] = system: RXF 393 renal
[38] = system: SF-268 CNS
[39] = system: SF-295 CNS
[40] = system: SK-MEL-2 melanoma
[41] = system: SK-MEL-28 melanoma
[42] = system: SK-MEL-5 melanoma
[43] = system: SK-OV-3 ovarian
[44] = system: SN12C renal
[45] = system: SNB-19 CNS
[46] = system: SNB-75 CNS
[47] = system: SR leukemia
[48] = system: SW-620 colon
[49] = system: T-47D breast
[50] = system: TK-10 renal
[51] = system: U251 CNS
[52] = system: UACC-257 melanoma
[53] = system: UACC-62 melanoma
[54] = system: UO-31 renal
[55] = system: EKVX NSCLC
[56] = system: M14 melanoma
[57] = system: MDA-MB-231 breast

Q: How did the GI50 [1] turn out when COc1cc(Nc2cc(C)nc(N3CCN(c4ccnc5cc(Cl)ccc45)CC3)n2)cc(OC)c1 was run?
A: 153 nM

Q: What about the TGI [1] of the same compound?
A: 5820 nM

Q: What about the GI50 [2] of the same compound?
A: 84.2 nM

Q: And the TGI [2]?
A: 658 nM

Q: And the GI50 [3]?
A: 227 nM

Q: And the TGI [3]?
A: > 39700 nM

Q: What about the GI50 [4] of the same compound?
A: 72.7 nM

Q: And the TGI [4]?
A: > 100000 nM

Q: And the GI50 [5]?
A: 498 nM

Q: And the TGI [5]?
A: 6610 nM

Q: And the GI50 [6]?
A: 198 nM

Q: And the TGI [6]?
A: > 100000 nM

Q: And the GI50 [7]?
A: 268 nM

Q: What about the TGI [7] of the same compound?
A: > 100000 nM

Q: And the GI50 [8]?
A: 202 nM

Q: And the TGI [8]?
A: 537 nM

Q: And the GI50 [9]?
A: 318 nM

Q: What about the GI50 [10] of the same compound?
A: 222 nM

Q: And the TGI [10]?
A: 4220 nM

Q: And the GI50 [11]?
A: 103 nM

Q: What about the TGI [11] of the same compound?
A: 5450 nM

Q: What about the GI50 [12] of the same compound?
A: 56.1 nM

Q: And the TGI [12]?
A: > 100000 nM

Q: And the GI50 [13]?
A: 240 nM

Q: What about the TGI [13] of the same compound?
A: 20800 nM

Q: What about the GI50 [14] of the same compound?
A: 194 nM

Q: What about the TGI [14] of the same compound?
A: 14300 nM

Q: What about the GI50 [15] of the same compound?
A: 97.3 nM

Q: What about the TGI [15] of the same compound?
A: 4680 nM

Q: And the GI50 [16]?
A: 176 nM

Q: And the TGI [16]?
A: > 100000 nM

Q: And the GI50 [17]?
A: 266 nM

Q: What about the TGI [17] of the same compound?
A: 2080 nM

Q: What about the GI50 [18] of the same compound?
A: 267 nM

Q: And the TGI [18]?
A: > 100000 nM

Q: And the GI50 [19]?
A: 108 nM

Q: And the TGI [19]?
A: > 61900 nM

Q: And the GI50 [20]?
A: 32.3 nM

Q: What about the TGI [20] of the same compound?
A: 4730 nM

Q: What about the GI50 [21] of the same compound?
A: 133 nM

Q: And the TGI [21]?
A: 2820 nM

Q: And the GI50 [22]?
A: 5080 nM

Q: And the TGI [22]?
A: > 100000 nM

Q: What about the GI50 [23] of the same compound?
A: 32.4 nM

Q: What about the TGI [23] of the same compound?
A: > 100000 nM

Q: And the GI50 [24]?
A: 30.6 nM

Q: What about the TGI [24] of the same compound?
A: 105 nM

Q: What about the GI50 [25] of the same compound?
A: 400 nM

Q: What about the TGI [25] of the same compound?
A: > 40900 nM

Q: And the GI50 [26]?
A: 362 nM

Q: And the GI50 [27]?
A: 302 nM

Q: What about the TGI [27] of the same compound?
A: > 100000 nM

Q: What about the GI50 [28] of the same compound?
A: 180 nM

Q: What about the TGI [28] of the same compound?
A: > 32300 nM

Q: What about the GI50 [29] of the same compound?
A: 50.1 nM

Q: And the TGI [29]?
A: 651 nM

Q: What about the GI50 [30] of the same compound?
A: 155 nM

Q: And the TGI [30]?
A: 1240 nM

Q: And the GI50 [31]?
A: 66.2 nM

Q: And the TGI [31]?
A: 437 nM

Q: And the GI50 [32]?
A: 128 nM

Q: What about the TGI [32] of the same compound?
A: > 100000 nM

Q: What about the GI50 [33] of the same compound?
A: 487 nM

Q: What about the TGI [33] of the same compound?
A: > 100000 nM

Q: What about the GI50 [34] of the same compound?
A: 337 nM

Q: What about the TGI [34] of the same compound?
A: > 79100 nM

Q: And the GI50 [35]?
A: 245 nM

Q: And the TGI [35]?
A: > 100000 nM

Q: What about the GI50 [36] of the same compound?
A: 313 nM

Q: What about the TGI [36] of the same compound?
A: 3510 nM

Q: And the GI50 [37]?
A: 35.4 nM

Q: And the TGI [37]?
A: 286 nM

Q: And the GI50 [38]?
A: 377 nM

Q: And the TGI [38]?
A: > 100000 nM

Q: What about the GI50 [39] of the same compound?
A: 49.6 nM

Q: What about the TGI [39] of the same compound?
A: 439 nM

Q: What about the GI50 [40] of the same compound?
A: 186 nM

Q: What about the TGI [40] of the same compound?
A: > 100000 nM

Q: What about the GI50 [41] of the same compound?
A: 99.3 nM

Q: What about the TGI [41] of the same compound?
A: > 100000 nM

Q: And the GI50 [42]?
A: 77.8 nM

Q: What about the TGI [42] of the same compound?
A: 351 nM

Q: And the GI50 [43]?
A: 253 nM

Q: And the TGI [43]?
A: > 78900 nM

Q: And the GI50 [44]?
A: 309 nM

Q: What about the TGI [44] of the same compound?
A: > 100000 nM

Q: And the GI50 [45]?
A: 318 nM

Q: And the TGI [45]?
A: > 100000 nM

Q: What about the GI50 [46] of the same compound?
A: 142 nM

Q: And the TGI [46]?
A: 1060 nM

Q: And the GI50 [47]?
A: 169 nM

Q: What about the TGI [47] of the same compound?
A: 3300 nM

Q: What about the GI50 [48] of the same compound?
A: 146 nM

Q: What about the TGI [48] of the same compound?
A: > 100000 nM

Q: What about the GI50 [49] of the same compound?
A: 2360 nM

Q: What about the TGI [49] of the same compound?
A: > 100000 nM

Q: And the GI50 [50]?
A: 538 nM

Q: And the TGI [50]?
A: 41300 nM

Q: What about the GI50 [51] of the same compound?
A: 268 nM

Q: And the TGI [51]?
A: > 100000 nM

Q: What about the GI50 [52] of the same compound?
A: 907 nM

Q: What about the TGI [52] of the same compound?
A: > 100000 nM

Q: And the GI50 [53]?
A: 95.5 nM

Q: And the TGI [53]?
A: > 71700 nM

Q: What about the GI50 [54] of the same compound?
A: 139 nM

Q: And the TGI [54]?
A: > 100000 nM

Q: What does the source list for O=C1CNc2cc(N3CCN(c4ccccc4)CC3)ccc2N1?
A: TGI [1]: > 100000 nM; TGI [2]: > 100000 nM; TGI [3]: > 100000 nM; TGI [4]: > 100000 nM; TGI [5]: > 100000 nM; TGI [6]: > 100000 nM; TGI [7]: > 100000 nM; TGI [8]: > 100000 nM; TGI [9]: > 100000 nM; TGI [55]: > 100000 nM; TGI [10]: > 100000 nM; TGI [11]: > 100000 nM; TGI [12]: > 100000 nM; TGI [13]: > 100000 nM; TGI [14]: > 100000 nM; TGI [15]: > 100000 nM; TGI [16]: > 100000 nM; TGI [17]: > 100000 nM; TGI [18]: > 100000 nM; TGI [19]: > 100000 nM; TGI [20]: > 100000 nM; TGI [21]: > 100000 nM; TGI [56]: > 100000 nM; TGI [22]: > 100000 nM; TGI [57]: > 100000 nM; TGI [24]: > 100000 nM; TGI [25]: > 100000 nM; TGI [26]: > 100000 nM; TGI [27]: > 100000 nM; TGI [28]: > 100000 nM; TGI [29]: > 100000 nM; TGI [30]: > 100000 nM; TGI [31]: > 100000 nM; TGI [32]: > 100000 nM; TGI [33]: > 100000 nM; TGI [34]: > 100000 nM; TGI [35]: > 100000 nM; TGI [36]: > 100000 nM; TGI [37]: > 100000 nM; TGI [38]: > 100000 nM; TGI [39]: > 100000 nM; TGI [40]: > 100000 nM; TGI [41]: > 100000 nM; TGI [42]: > 100000 nM; TGI [43]: > 100000 nM; TGI [45]: > 100000 nM; TGI [46]: > 100000 nM; TGI [47]: > 100000 nM; TGI [48]: > 100000 nM; TGI [49]: > 100000 nM; TGI [50]: > 100000 nM; TGI [51]: > 100000 nM; TGI [52]: > 100000 nM; TGI [53]: > 100000 nM; TGI [54]: > 100000 nM
